Results published in the METLIN SMRT retention time set (Domingo-Almenara et al. 2019).

Assay: gradient 5% acetonitrile 3 min, to 50% in 2 min, to 85% in 15 min, held 3 min, 100 µL/min
Details: column: Zorbax Extend-C18 2.1 x 50 mm; eluents: water / acetonitrile, 0.1% formic acid
Outline: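 Pure standards were run in mixtures of ~100 molecules by HPLC coupled to a quadrupole time-of-flight mass spectrometer. The column was a Zorbax Extend-C18 (2.1 × 50 mm, 1.8 μm) at 100 μL/min, with water and acetonitrile each containing 0.1% formic acid, in positive and negative ionization mode. Dead and dwell volumes were 40 μL and 900 μL. Retention time was taken from computationally picked adduct peaks, each manually inspected, with data collected over 3 months.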

## Cc1ccc(C)c(N2CCN(C(=O)Cn3c(=O)c4nncn4c4ncccc43)CC2)c1
  RP-LC retention time: 790 s

## Cc1nc(-c2ccc(C(F)(F)F)cc2)ncc1C(=O)NCc1ccco1
  RP-LC retention time: 1020 s

## COc1ccc(C)cc1NC(=O)Cn1nc2c(Oc3ccc(Cl)cc3)nccn2c1=O
  RP-LC retention time: 946 s

## CCN1C(=O)COc2ccc(-c3nc(NC(=O)c4cccnc4)sc3C)cc21
  RP-LC retention time: 784 s

## CCCCN1C(=O)C(C)(C(=O)Nc2cc(Cl)ccc2OC)Oc2cccnc21 (stereo not drawn)
  RP-LC retention time: 1230 s

## CSc1ccc(-c2noc(Cn3c(=O)n(-c4cccc(F)c4)c(=O)c4sccc43)n2)cc1
  RP-LC retention time: 1040 s

## CSc1nnc(-c2nn(C)c3c2CN(C(=O)CCc2ccccc2)CC3)n1C
  RP-LC retention time: 719 s

## CCn1c(C(=O)NCCCc2ccccc2)cc2c(-c3cccs3)nn(-c3ccccc3)c21
  RP-LC retention time: 1280 s

## Cc1nc(-c2csc(S(=O)(=O)N3CCCC(C(=O)Nc4ccccc4F)C3)c2)no1 (stereo not drawn)
  RP-LC retention time: 929 s

## CC(C)C(=O)N1CCCC(c2nc(CNC(=O)C3CCC3)cs2)C1 (stereo not drawn)
  RP-LC retention time: 679 s

## O=C(c1nnc(-c2ccc(S(=O)(=O)N3CCCCC3)cc2)o1)N1CCC(N2CCCCC2)CC1
  RP-LC retention time: 654 s

## CCc1noc(C2(NC(=O)/C=C/c3ccccc3)CCCCC2)n1
  RP-LC retention time: 961 s

## Cc1ccnc(N2CCCC(C(=O)NCCSCc3ccco3)C2)n1 (stereo not drawn)
  RP-LC retention time: 709 s

## COc1ccc(C(=O)Nc2nc(CC(=O)NCc3cccs3)cs2)cc1
  RP-LC retention time: 739 s

## CCc1ccccc1NC(=O)Cn1nc2cc(C)nc(Nc3ccc(F)cc3)n2c1=O
  RP-LC retention time: 1040 s

## CCOC(=O)CCC(=O)N1CCCC(COCc2ccccc2)C1 (stereo not drawn)
  RP-LC retention time: 842 s

## COc1coc(C(=O)N2CCN(S(C)(=O)=O)CC2)cc1=O
  RP-LC retention time: 548 s

## COc1ccc(Nc2c(C(=O)N3CCCCC3C)cnc3nc(C)ccc23)cc1 (stereo not drawn)
  RP-LC retention time: 639 s

## O=C(CCn1cnc2cc(-c3noc(-c4ccccc4Br)n3)ccc21)N1CCOCC1
  RP-LC retention time: 743 s

## Cc1noc(C)c1CN1CCC(NC(=O)c2cccc(C#N)c2)C1 (stereo not drawn)
  RP-LC retention time: 578 s

## Cc1ccc2nc(C(=O)NCc3ccc4c(c3)OCO4)cn2c1
  RP-LC retention time: 628 s

## Cc1cccc(CNC(=O)c2ccc(CN3CCN(C(C)C)C(=O)C3=O)cc2)c1
  RP-LC retention time: 714 s

## CCc1nc(OCC(=O)N(C)c2ccccc2)c2ccccc2n1
  RP-LC retention time: 756 s

## COCCC(=O)N1CCC(c2noc(C3CC3)n2)C1 (stereo not drawn)
  RP-LC retention time: 627 s

## O=C(Nc1ccc2c(c1)OCCO2)N1CCN(Cc2nc3cccnc3n2-c2ccccc2)CC1
  RP-LC retention time: 635 s

## COCCc1noc(-c2ccc(=O)n(CC(=O)NC3CCCCC3)c2)n1
  RP-LC retention time: 684 s

## Cn1c(=O)c(N2CCCC(C(=O)NCCc3ccco3)C2)nc2cccnc21 (stereo not drawn)
  RP-LC retention time: 827 s

## O=C(Nc1cccc([N+](=O)[O-])c1)c1cc2ccccc2cc1O
  RP-LC retention time: 1100 s

## COc1ccc(CN2C(=O)COC[C@H]2C(=O)NC2CC2)c(OC)c1
  RP-LC retention time: 643 s

## Cc1ccn2cc(-c3ccc(NC(=O)CCCc4ccccc4)cc3)nc2n1
  RP-LC retention time: 694 s

## CCCNC(=O)C1CCN(c2ccc(SCC(=O)NCc3ccc4c(c3)OCO4)nn2)CC1
  RP-LC retention time: 606 s

## CCC1CN(C(=O)Nc2ccc3c(c2)OCCO3)c2ccccc2O1 (stereo not drawn)
  RP-LC retention time: 966 s

## Cc1cc(S(=O)(=O)N2CCN(C3CCN(C)C3=O)CC2)ccc1Cl (stereo not drawn)
  RP-LC retention time: 595 s

## CN(C)CCCNc1cc(N2CCOCC2)c2noc3c2c1C(=O)c1ccccc1-3
  RP-LC retention time: 770 s

## CC(NC(=O)C(=O)NC1CCCCC1)C(c1cccs1)N1CCOCC1 (stereo not drawn)
  RP-LC retention time: 604 s

## CC(C)c1cc(C(=O)NC2CC2)n[nH]1
  RP-LC retention time: 625 s

## CCn1cc(-c2nc(CC(=O)NCc3ccc(C)cc3)cs2)c2cccnc21
  RP-LC retention time: 912 s

## Cc1cc(C(=O)NCC(C)C)c2cc(Cl)ccc2n1
  RP-LC retention time: 784 s

## CCNc1nc(C)cc(N2CCN(S(=O)(=O)c3ccccc3C(F)(F)F)CC2)n1
  RP-LC retention time: 732 s

## O=C(NCc1ccccc1F)c1sc2ncccc2c1-n1cccc1
  RP-LC retention time: 961 s

## Cc1cc(=O)n(CC(=O)Nc2ccc(Br)cc2)c(N2CCCC2)n1
  RP-LC retention time: 666 s

## O=C1CC(C(F)(F)F)c2c(c(C(=O)O)cn2-c2ccc(F)cc2)N1 (stereo not drawn)
  RP-LC retention time: 727 s

## CCc1cc(C(=O)Nc2ccc(N3CCOCC3)cc2)nc2cc(-c3ccco3)nn12
  RP-LC retention time: 683 s

## O=C(Nc1ccccc1Cl)Nc1c(-c2ccc(F)cc2)nc2ccccn12
  RP-LC retention time: 695 s

## O=C(c1cccnc1)N1CCC(n2nc(-c3ccsc3)ccc2=O)CC1
  RP-LC retention time: 650 s

## Cc1ccc(CN2C(=O)NC3(CCCN(C(=O)c4ccc5c(c4)OCO5)C3)C2=O)cc1 (stereo not drawn)
  RP-LC retention time: 819 s

## Cc1cnn(CCC(=O)NC2CCN(c3ccc(=O)n(CC4CC4)n3)C2)c1 (stereo not drawn)
  RP-LC retention time: 654 s

## Cc1cccc(C(=O)N2CCC3(C2)C(=O)N(C)c2ccccc23)c1 (stereo not drawn)
  RP-LC retention time: 794 s

## O=C(NCCCOc1cccc2cccnc12)c1ccc(F)cc1Cl
  RP-LC retention time: 580 s

## Cc1ccc(F)cc1NC(=O)Cn1cnc2nc(N3CCCC(C(=O)NC(C)C)C3)sc2c1=O (stereo not drawn)
  RP-LC retention time: 712 s

## COCCCNS(=O)(=O)c1cc(-c2nc(C)cs2)n(CC(=O)N2CCCCC2)c1
  RP-LC retention time: 824 s

## O=[N+]([O-])c1ccc(Sc2ncccn2)c([N+](=O)[O-])c1
  RP-LC retention time: 900 s

## Cc1cccc(-n2c(N3CCCC(C(=O)Nc4ccc(Cl)cc4)C3)nc3ccsc3c2=O)c1 (stereo not drawn)
  RP-LC retention time: 1080 s

## COCC1CN(S(=O)(=O)c2cccc(C#N)c2)CCC1(F)F (stereo not drawn)
  RP-LC retention time: 892 s

## COc1ccc(-n2cc(C(=O)Nc3ccc(SC)cc3)nn2)cc1
  RP-LC retention time: 966 s

## CCOC(=O)C1CCN(c2ncnc3c2cnn3-c2ccc(OC)cc2)CC1
  RP-LC retention time: 952 s

## CCOC(=O)C1CCN(C(=O)C2CCN(c3cncnc3N3CCCCC3)CC2)CC1
  RP-LC retention time: 651 s

## COc1ccc(OCC(=O)Nc2ccc3c(c2)CCCN3C(=O)C2CC2)cc1
  RP-LC retention time: 852 s

## CCn1cc(C2=CCN(C(=O)NCc3cccc(F)c3)CC2)c2cccnc21
  RP-LC retention time: 850 s

## CCn1cc(S(=O)(=O)Nc2cccc(C)c2C)c2cccnc21
  RP-LC retention time: 868 s

## O=c1ccc(-c2ccccc2)nn1CCc1nc(-c2ccncc2)no1
  RP-LC retention time: 727 s

## Cc1ccc(C(=O)N2CC(n3cc(COc4ccc(F)cc4)nn3)C2)c(=O)[nH]1
  RP-LC retention time: 655 s

## Cc1cc(Cl)ccc1S(=O)(=O)N1CC(c2nc(-c3ccncc3)no2)C1
  RP-LC retention time: 931 s

## COc1cc2c(cc1OC)CN(C(=O)C1CCCN1S(=O)(=O)c1ccc(F)cc1)CC2 (stereo not drawn)
  RP-LC retention time: 775 s

## CC1=C(c2ccc(C)cc2)S(=O)(=O)N=C1N1CCCN(C(=O)C2CCOC2)CC1 (stereo not drawn)
  RP-LC retention time: 732 s

## Cc1ccccc1Sc1nccnc1SCC(=O)N1CCN(c2ccccn2)CC1
  RP-LC retention time: 715 s

## Cc1cccc(C(=O)N2C[C@H](c3nc(-c4ccccc4)no3)[C@@H](C)C2)c1
  RP-LC retention time: 731 s

## CC(C)C(=O)Nc1ccc(-n2cnc(C(=O)NCc3ccc(F)cc3F)c2)nc1
  RP-LC retention time: 773 s

## Cc1ccc(-c2nnc(-c3nn(C)c4c3CN(S(=O)(=O)c3cccc(F)c3)CC4)o2)cc1
  RP-LC retention time: 999 s

## CCN1CCN(c2ccc(NC(=O)C(C)(C)C)c(C(=O)O)c2)CC1
  RP-LC retention time: 594 s

## O=C(Nc1ccc2c(c1)OCCO2)c1cccc(N2CCNC(c3ccccc3)C2)n1 (stereo not drawn)
  RP-LC retention time: 668 s

## COc1cccc(NC(=O)Cn2nc3c(Oc4ccccc4Cl)nccn3c2=O)c1
  RP-LC retention time: 865 s

## CC(C)N1CCN(C(=O)c2sc3ncccc3c2-n2cccc2)CC1
  RP-LC retention time: 597 s

## O=C(Nc1ccccc1C(F)(F)F)N1CCC(n2cnc3cccnc32)CC1
  RP-LC retention time: 657 s

## CCOc1cccc(-c2noc(-c3nnn(Cc4nc(-c5cccc(C)c5)oc4C)c3C)n2)c1
  RP-LC retention time: 1410 s

## COc1ccc(-c2nc3cnccn3c2Nc2ccc(C(C)C)cc2)cc1OC
  RP-LC retention time: 936 s

## COc1ccc(CN2C(=O)c3ccccc3C2C(=O)NC2CCCC2)c(OC)c1 (stereo not drawn)
  RP-LC retention time: 848 s

## CC(=O)Nc1ccc(-c2noc(C3CCN(C(=O)CCC4CCCC4)CC3)n2)cc1
  RP-LC retention time: 924 s

## COC(=O)c1c(C)c(C(=O)C(C)N(Cc2ccc(F)cc2)C(=O)C2CC2)c(C)n1C (stereo not drawn)
  RP-LC retention time: 917 s

## CC(C)N1CCN(C(=O)c2csc(-c3ccc(N4CCCC4)nc3)n2)CC1
  RP-LC retention time: 559 s

## CCn1cc(C(=O)Nc2cccc(OC)c2)c2cccnc21
  RP-LC retention time: 809 s

## CCS(=O)(=O)N1CCOc2ccc(CCC(=O)NC3CC3)cc2C1
  RP-LC retention time: 675 s

## CCOc1ccccc1NC(=O)N1CCN(CCn2c(C(C)C)nc3cccnc32)CC1
  RP-LC retention time: 617 s

## CCCNC(=O)C1CCCN(c2ccc(SCC(=O)Nc3ccccc3OCC)nn2)C1 (stereo not drawn)
  RP-LC retention time: 736 s

## Cn1cc(-c2nc(C(=O)NCc3cc(F)cc(F)c3)cs2)c2cccnc21
  RP-LC retention time: 944 s

## Cc1ccc(F)cc1S(=O)(=O)N1CCC(C2CCNC2)CC1 (stereo not drawn)
  RP-LC retention time: 651 s

## CC(NC(=O)Cn1cc(C#N)c2ccccc21)c1ccc2c(c1)OCCCO2 (stereo not drawn)
  RP-LC retention time: 881 s

## CC(C)(O)CC[C@@H](O)[C@@](C)(O)[C@H]1CC[C@@]2(O)C3=CC(=O)[C@@H]4C[C@@H](O)[C@@H](O)C[C@]4(C)[C@H]3CC[C@]12C
  RP-LC retention time: 607 s
